From patent publication US9890133B2 (priority 2011, dated 2018)
In brackets after ≈: the same amount, converted by molar mass.

Tests used:
Poliovirus 3 = test: microbe, parasite or virus in culture; type: cell-based; details: Enterovirus C, read-out: Poliovirus3 EC50
in vitro = details: human

Structure (SMILES)	EC50 (Poliovirus 3) [µg/mL]	CC50 (in vitro) [µg/mL]	CC50 (in vitro; Picorana CC50) [µg/mL]	CC50 (in vitro; Rhino CC50) [µg/mL]
CCCCOC(=O)OC12Oc3cc(C(C)C)ccc3C1(NC(C)=O)C(=O)c1c(N)cccc12 (stereo not shown) [Example 115, 9b-Acetamido-1-amino-7-isopropyl-10-oxo-9b,10-dihydro-4bH-benzo[d]indeno[1,2-b]furan-4b-yl butyl carbonate]	< 0.01	23.1 (≈ 51.1 µM)	42.8 (≈ 94.6 µM)	–
CC(C)c1ccc2c(c1)OC1(O)c3cccc(N)c3C(=O)C21NC(=O)c1cc2ccccc2cn1 (stereo not shown) [Example 248, N-(1-Amino-4b-hydroxy-7-isopropyl-10-oxo-9b,10-dihydro-4bH-indeno[1,2-b]benzofuran-9b-yl)isoquinoline-3-carboxamide]	0.027 (≈ 0.058 µM)	> 10	4.99 (≈ 10.7 µM)	–
CC(C)c1ccc2c(c1)OC1(O)c3cccc(N)c3C(=O)C21NC(=O)c1cccnc1 (stereo not shown) [Example 198, N-(1-Amino-4b-hydroxy-7-isopropyl-10-oxo-9b,10-dihydro-4bH-indeno[1,2-b]benzofuran-9b-yl)nicotinamide]	< 0.01	27.9 (≈ 67.3 µM)	> 50	–
CC(C)c1ccc2c(c1)OC1(O)c3ccccc3C(=O)C21NC(=O)c1ccc2[nH]cnc2c1 (stereo not shown) [Example 240, N-(4b-hydroxy-7-isopropyl-10-oxo-9b,10-dihydro-4bH-benzo[d]indeno[1,2-b]furan-9b-yl)-1H-benzo[d]imidazole-5-carboxamide]	< 0.01	> 10	8.25 (≈ 18.8 µM)	–
CC(C)c1ccc2c(c1)OC1(O)c3cccc(N)c3C(=O)C21NC(=O)c1cnccn1 (stereo not shown) [Example 200, N-(1-Amino-4b-hydroxy-7-isopropyl-10-oxo-9b,10-dihydro-4bH-indeno[1,2-b]benzofuran-9b-yl) pyrazine-2-carboxamide]	< 0.01	> 10	–	–
Cc1cc(C(=O)NC23C(=O)c4c(N)cccc4C2(O)Oc2cc(C(C)C)ccc23)ccn1 (stereo not shown) [Example 249, N-(1-Amino-4b-hydroxy-7-isopropyl-10-oxo-9b,10-dihydro-4bH-indeno[1,2-b]benzofuran-9b-yl)-2-methylisonicotinamide]	< 0.01	> 10	–	–
Cc1cc(C)cc(C(=O)NC23C(=O)c4c(N)cccc4C2(O)Oc2cc(C(C)C)ccc23)c1 (stereo not shown) [Example 191, N-(1-Amino-4b-hydroxy-7-isopropyl-10-oxo-9b,10-dihydro-4bH-indeno[1,2-b]benzofuran-9b-yl)-3,5-dimethylbenzamide]	< 0.01	> 10	4.12 (≈ 9.31 µM)	–
Cc1nc(C(=O)NC23C(=O)c4c(N)cccc4C2(O)Oc2cc(C(C)C)ccc23)c2ccccn12 (stereo not shown) [Example 287, N-(1-Amino-4b-hydroxy-7-isopropyl-10-oxo-9b,10-dihydro-4bH-benzo[d]indeno[1,2-b]furan-9b-yl)-3-methylimidazo[1,5-a]pyridine-1-carboxamide]	0.036 (≈ 0.0768 µM)	> 10	7.01 (≈ 15 µM)	–
Cc1ncsc1C(=O)NC12C(=O)c3c(N)cccc3C1(O)Oc1cc(C(C)C)ccc12 (stereo not shown) [Example 206, N-(1-Amino-4b-hydroxy-7-isopropyl-10-oxo-9b,10-dihydro-4bH-indeno[1,2-b]benzofuran-9b-yl)-4-methylthiazole-5-carboxamide]	< 0.01	> 10	–	–
CC(C)c1ccc2c(c1)OC1(O)c3cccc(N)c3C(=O)C21NC(=O)c1cncc(O)c1 (stereo not shown) [Example 256, N-(1-Amino-4b-hydroxy-7-isopropyl-10-oxo-9b,10-dihydro-4bH-indeno[1,2-b]benzofuran-9b-yl)-5-hydroxynicotinamide]	< 0.01	> 10	–	–
CC(C)c1ccc2c(c1)OC1(O)c3cccc(N)c3C(=O)C21NC(=O)c1nc2cc(F)ccc2[nH]1 (stereo not shown) [Example 291, N-(1-Amino-4b-hydroxy-7-isopropyl-10-oxo-9b,10-dihydro-4bH-indeno[1,2-b]benzofuran-9b-yl)-5-fluoro-1H-benzo[d]imidazole-2-carboxamide]	0.036 (≈ 0.0762 µM)	4.51 (≈ 9.55 µM)	4.43 (≈ 9.38 µM)	–
CC(C)c1ccc2c(c1)OC1(O)c3cccc(N)c3C(=O)C21NC(=O)C(F)(F)F (stereo not shown) [Example 175, N-(1-Amino-4b-hydroxy-7-isopropyl-10-oxo-9b,10-dihydro-4bH-indeno[1,2-b]benzofuran-9b-yl)-2,2,2-trifluoroacetamide]	< 0.01	> 10	> 11	–
CC(C)c1ccc2c(c1)OC1(O)c3cccc(N)c3C(=O)C21NC(=O)c1cc2ccccc2o1 (stereo not shown) [Example 204, N-(1-Amino-4b-hydroxy-7-isopropyl-10-oxo-9b,10-dihydro-4bH-benzo[d]indeno[1,2-b]furan-9b-yl)benzofurane-2-carboxamide]	0.011 (≈ 0.0242 µM)	> 10	> 4.51	–
Cc1cc2c(cc1C)C1(NC(=O)c3ccc4ncccc4c3)C(=O)c3c(N)cccc3C1(O)O2 (stereo not shown) [Example 262, N-(1-Amino-4b-hydroxy-7,8-dimethyl-10-oxo-9b,10-dihydro-4bH-indeno[1,2-b]benzofuran-9b-yl)quinoline-6-carboxamide]	0.0124 (≈ 0.0275 µM)	> 10	–	–
CC(C)c1ccc2c(c1)OC1(O)c3cccc(N)c3C(=O)C21NC(=O)C(C)(C)C (stereo not shown) [Example 114, N-(1-Amino-4b-hydroxy-7-isopropyl-10-oxo-9b,10-dihydro-4bH-benzo[d]indeno[1,2-b]furan-9b-yl)pivalamide]	0.034 (≈ 0.0862 µM)	43.1 (≈ 109 µM)	45.9 (≈ 116 µM)	–
COc1cc(C(=O)NC23C(=O)c4c(N)cccc4C2(O)Oc2cc(C(C)C)ccc23)ccn1 (stereo not shown) [Example 234, N-(1-Amino-4b-hydroxy-7-isopropyl-10-oxo-9b,10-dihydro-4bH-indeno[1,2-b]benzofuran-9b-yl)-2-methoxyisonicotinamide]	< 0.01	> 10	9.1 (≈ 20.4 µM)	–
CC(C)c1ccc2c(c1)OC1(O)c3cccc(N)c3C(=O)C21NC(=O)c1ccncc1Cl (stereo not shown) [Example 251, N-(1-Amino-4b-hydroxy-7-isopropyl-10-oxo-9b,10-dihydro-4bH-indeno[1,2-b]benzofuran-9b-yl)-3-chloroisonicotinamide]	< 0.01	> 10	–	–
CC(C)c1ccc2c(c1)OC1(O)c3cccc(N)c3C(=O)C21NC(=O)c1ccc(C#N)cc1 (stereo not shown) [Example 170, N-(1-Amino-4b-hydroxy-7-isopropyl-10-oxo-9b,10-dihydro-4bH-indeno[1,2-b]benzofuran-9b-yl)-4-cyanobenzamide]	< 0.01	> 10	–	–
Cc1cncc(C(=O)NC23C(=O)c4c(N)cccc4C2(O)Oc2cc(C(C)C)ccc23)c1 (stereo not shown) [Example 259, N-(1-Amino-4b-hydroxy-7-isopropyl-10-oxo-9b,10-dihydro-4bH-indeno[1,2-b]benzofuran-9b-yl)-5-methylnicotinamide]	< 0.01	> 10	–	–
Cc1ccnc(C(=O)NC23C(=O)c4c(N)cccc4C2(O)Oc2cc(C(C)C)ccc23)c1 (stereo not shown) [Example 243, N-(1-Amino-4b-hydroxy-7-isopropyl-10-oxo-9b,10-dihydro-4bH-benzo[d]indeno[1,2-b]furan-9b-yl)-4-methylpicolinamide]	< 0.01	> 10	7.36 (≈ 17.1 µM)	–
CC(C)c1ccc2c(c1)OC1(O)c3cccc(N)c3C(=O)C21NC(=O)c1ccc(OCc2ccccc2)cc1 (stereo not shown) [Example 181, N-(1-Amino-4b-hydroxy-7-isopropyl-10-oxo-9b,10-dihydro-4bH-indeno[1,2-b]benzofuran-9b-yl)-4-(benzyloxy)benzamide]	0.036 (≈ 0.0692 µM)	> 10	–	–
Cc1ccc(C(=O)NC23C(=O)c4c(N)cccc4C2(O)Oc2cc(C(C)C)ccc23)cc1 (stereo not shown) [Example 188, N-(1-Amino-4b-hydroxy-7-isopropyl-10-oxo-9b,10-dihydro-4bH-benzo[d]indeno[1,2-b]furan-9b-yl)-4-methylbenzamide]	< 0.01	> 10	8.38 (≈ 19.6 µM)	–
CC(C)c1ccc2c(c1)OC1(O)c3ccccc3C(=O)C21NC(=O)c1ccc2[nH]nnc2c1 (stereo not shown) [Example 221, N-(4b-Hydroxy-7-isopropyl-10-oxo-9b,10-dihydro-4bH-benzo[d]indeno[1,2-b]furan-9b-yl)-1H-benzo[d][1,2,3]triazole-5-carboxamide]	0.016 (≈ 0.0363 µM)	6.53 (≈ 14.8 µM)	14.5 (≈ 32.9 µM)	–
COc1sccc1C(=O)NC12C(=O)c3c(N)cccc3C1(O)Oc1cc(C(C)C)ccc12 (stereo not shown) [Example 217, N-(1-Amino-4b-hydroxy-7-isopropyl-10-oxo-9b,10-dihydro-4bH-indeno[1,2-b]benzofuran-9b-yl)-2-methoxythiophene-3-carboxamide]	0.038 (≈ 0.0843 µM)	> 10	4.24 (≈ 9.41 µM)	–
CC(C)c1ccc2c(c1)OC1(O)c3cccc(N)c3C(=O)C21NC(=O)c1ccco1 (stereo not shown) [Example 201, N-(1-Amino-4b-hydroxy-7-isopropyl-10-oxo-9b,10-dihydro-4bH-indeno[1,2-b]benzofuran-9b-yl)furane-2-carboxamide]	< 0.01	> 10	–	–
CC(C)c1ccc2c(c1)OC1(O)c3cccc(N)c3C(=O)C21NC(=O)CF (stereo not shown) [Example 193, N-(1-Amino-4b-hydroxy-7-isopropyl-10-oxo-9b,10-dihydro-4bH-benzo[d]indeno[1,2-b]furan-9b-yl)-2-fluoroacetamide]	0.011 (≈ 0.0297 µM)	–	> 10	> 10
CC(C)c1ccc2c(c1)OC1(O)c3cccc(N)c3C(=O)C21NC(=O)c1ccc2ncccc2c1 (stereo not shown) [Example 203]	< 0.01	> 10	–	–
CC(C)c1ccc2c(c1)OC1(O)c3cccc(N)c3C(=O)C21NC(=O)c1cccc(Cl)c1 (stereo not shown) [Example 190, N-(1-Amino-4b-hydroxy-7-isopropyl-10-oxo-9b,10-dihydro-4bH-indeno[1,2-b]benzofuran-9b-yl)-3-chlorobenzamide]	< 0.01	5.52 (≈ 12.3 µM)	> 10	–
COc1cccc(C(=O)NC23C(=O)c4c(N)cccc4C2(O)Oc2cc(C(C)C)ccc23)c1 (stereo not shown) [Example 154, N-(1-Amino-4b-hydroxy-7-isopropyl-10-oxo-9b,10-dihydro-4bH-indeno[1,2-b]benzofuran-9b-yl)-3-methoxybenzamide]	< 0.01	22.7 (≈ 51.1 µM)	46.2 (≈ 104 µM)	–
